We go through 35 cell lines from the supplement of paper PMC10307832.

Compound in the assay: CN(C/C=C/C1=CC=C(C=C1)Cl)CC2=CC=CC=C2N(CCO)S(=O)(=O)C3=CC=C(C=C3)OC [KN-93] + Cc1nc(NC(=O)N2CCC[C@H]2C(N)=O)sc1-c1ccnc(C(C)(C)C(F)(F)F)c1 [Alpelisib] (partner 2 µM)
Nature of the assay: relative viability (nuclei count vs DMSO), 5 days (fraction); higher = more cells survive. Put shortly: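 Relative viability divides the nuclei count in treated wells by that in vehicle wells. Lung cancer cell lines were seeded in 1536-well plates, dosed by pin tool the next day, and fixed and stained after 5 days in one step with final 0.05% Triton X-100, 1% formaldehyde and 1 ug/ml Hoechst. Dosing was a single drug or a fixed anchor-drug dose plus five library-drug doses (not always all listed) in √10 steps, and values are medians of duplicate plates imaged at 4×.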

With SW 1573, the relative viability came out at 0.87 (first compound 0.08 µM), 0.805 (first compound 0.253 µM), 0.933 (first compound 2.53 µM) and 0.632 (first compound 8 µM).

With NCI-H596, the relative viability stood at 0.442 (first compound 0.08 µM), 0.459 (first compound 0.253 µM), 0.51 (first compound 2.53 µM) and 0.334 (first compound 8 µM).

As for NCI-H1793, the relative viability by setting is: (first compound 0.253 µM) 0.851; (first compound 2.53 µM) 0.624; (first compound 8 µM) 0.542.

Regarding NCI-H2170, the relative viability (first compound 0.08 µM) was found to be 0.782, the relative viability (first compound 0.253 µM) came out at 0.876, the relative viability (first compound 2.53 µM) stood at 0.928 and the relative viability (first compound 8 µM) was found to be 0.65.

For LK-2, the relative viability was 0.905 (first compound 0.08 µM), 1.51 (first compound 0.253 µM), 1.32 (first compound 2.53 µM) and 0.673 (first compound 8 µM).

Regarding HCC-366, the relative viability (first compound 0.253 µM) is 0.394, the relative viability (first compound 2.53 µM) was determined as 0.507 and the relative viability (first compound 8 µM) stood at 0.172.

As for NCI-H661, the relative viability is 0.578 (first compound 0.08 µM), 0.597 (first compound 0.253 µM), 0.796 (first compound 2.53 µM) and 0.161 (first compound 8 µM).

For the cell line NCI-H2085, the relative viability turned out to be 0.993 (first compound 0.08 µM), 1.07 (first compound 0.253 µM), 0.985 (first compound 2.53 µM) and 0.749 (first compound 8 µM).

Consider NCI-H1437, for which the relative viability (first compound 0.08 µM) amounted to 0.876, the relative viability (first compound 0.253 µM) amounted to 1.25, the relative viability (first compound 2.53 µM) was 0.88 and the relative viability (first compound 8 µM) was 0.613.

In the case of HCC-44, the relative viability amounted to 0.775 (first compound 0.08 µM), 0.746 (first compound 0.253 µM), 0.99 (first compound 2.53 µM) and 0.549 (first compound 8 µM).

With NCI-H3122, the relative viability runs as follows: (first compound 0.08 µM) 0.829; (first compound 0.253 µM) 0.659; (first compound 2.53 µM) 0.766; (first compound 8 µM) 0.585.

Turning to NCI-H1395, the relative viability (first compound 0.08 µM) was 1.16, the relative viability (first compound 0.253 µM) was 1.1, the relative viability (first compound 2.53 µM) worked out at 1.05 and the relative viability (first compound 8 µM) was 0.506.

For the cell line NCI-H1734, the relative viability reads like this: (first compound 0.08 µM) 0.718; (first compound 0.253 µM) 0.712; (first compound 2.53 µM) 0.746; (first compound 8 µM) 0.533.

Take NCI-H460: the relative viability is, setting by setting: (first compound 0.08 µM) 0.47; (first compound 0.253 µM) 0.649; (first compound 2.53 µM) 0.42; (first compound 8 µM) 0.203.

As for NCI-H2087, the relative viability runs as follows: (first compound 0.08 µM) 0.879; (first compound 0.253 µM) 1.21; (first compound 2.53 µM) 0.933; (first compound 8 µM) 0.532.

Consider HOP-62, for which the relative viability came to 1.1 (first compound 0.08 µM), 1.22 (first compound 0.253 µM), 1.22 (first compound 2.53 µM) and 0.866 (first compound 8 µM).

Turning to NCI-H358, the relative viability by setting is: (first compound 0.08 µM) 0.843; (first compound 0.253 µM) 0.992; (first compound 2.53 µM) 0.72; (first compound 8 µM) 0.319.

On to NCI-H1944, for which the relative viability is, setting by setting: (first compound 0.08 µM) 0.832; (first compound 0.253 µM) 0.761; (first compound 2.53 µM) 0.931; (first compound 8 µM) 0.754.

With HCC-78, the relative viability is, setting by setting: (first compound 0.08 µM) 0.385; (first compound 0.253 µM) 0.276; (first compound 2.53 µM) 0.393; (first compound 8 µM) 0.212.

In the case of NCI-H1703, the relative viability reads like this: (first compound 0.08 µM) 0.298; (first compound 0.253 µM) 0.319; (first compound 2.53 µM) 0.304; (first compound 8 µM) 0.227.

In the case of LCLC-97TM1, the relative viability was found to be 0.282 (first compound 0.08 µM), 0.217 (first compound 2.53 µM) and 0.206 (first compound 8 µM).

Regarding IA-LM, the relative viability (first compound 0.08 µM) is 0.765, the relative viability (first compound 0.253 µM) is 0.746, the relative viability (first compound 2.53 µM) stood at 0.773 and the relative viability (first compound 8 µM) came to 0.778.

For NCI-H441, the relative viability reads like this: (first compound 0.253 µM) 1.18; (first compound 2.53 µM) 0.772; (first compound 8 µM) 0.341.

Consider ABC-1, for which the relative viability (first compound 0.08 µM) amounted to 0.893, the relative viability (first compound 0.253 µM) amounted to 1.27, the relative viability (first compound 2.53 µM) came out at 1.13 and the relative viability (first compound 8 µM) stood at 0.715.

As to NCI-H1755, the relative viability came to 0.718 (first compound 0.08 µM), 1.13 (first compound 0.253 µM), 1.2 (first compound 2.53 µM) and 0.819 (first compound 8 µM).

COR-L23: the relative viability is, setting by setting: (first compound 0.08 µM) 0.743; (first compound 0.253 µM) 1.01; (first compound 2.53 µM) 0.745; (first compound 8 µM) 0.601.

As for LXF-289, the relative viability by setting is: (first compound 0.08 µM) 0.974; (first compound 0.253 µM) 1.11; (first compound 2.53 µM) 1.11; (first compound 8 µM) 0.705.

On to RERF-LC-KJ, for which the relative viability reads like this: (first compound 0.08 µM) 0.682; (first compound 0.253 µM) 0.754; (first compound 2.53 µM) 0.766; (first compound 8 µM) 0.634.

Turning to NCI-H1666, the relative viability by setting is: (first compound 0.08 µM) 0.974; (first compound 0.253 µM) 0.895; (first compound 2.53 µM) 1.22; (first compound 8 µM) 0.674.

NCI-H520: the relative viability is, setting by setting: (first compound 0.253 µM) 1.38; (first compound 2.53 µM) 1.05; (first compound 8 µM) 0.763.

In the case of LC-2-ad, the relative viability by setting is: (first compound 0.08 µM) 0.815; (first compound 0.253 µM) 0.945; (first compound 2.53 µM) 0.84; (first compound 8 µM) 0.53.

UMC-11: the relative viability amounted to 1.24 (first compound 0.253 µM), 1.27 (first compound 2.53 µM) and 0.613 (first compound 8 µM).

Take LOU-NH91: the relative viability (first compound 0.08 µM) worked out at 0.716, the relative viability (first compound 0.253 µM) was 0.647, the relative viability (first compound 2.53 µM) stood at 0.756 and the relative viability (first compound 8 µM) was found to be 0.64.

As for NCI-H1915, the relative viability reads like this: (first compound 0.08 µM) 1.06; (first compound 0.253 µM) 1.17; (first compound 2.53 µM) 1.1; (first compound 8 µM) 0.95.

As to EMC-BAC-2, the relative viability amounted to 0.683 (first compound 0.08 µM), 0.732 (first compound 0.253 µM), 0.928 (first compound 2.53 µM) and 0.676 (first compound 8 µM).
